Structures are written as SMILES. Calls of active or inactive are those of the source.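 Rule for the calls: active = mean IC50 of 15000 nM or lower against heat shock reporter, a sign of off-target artifact; inactive = the rest.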

The subject of this experiment is C. elegans VP596 hsp-16.2 GFP/RFP heat-shock reporter fluorescence. Put plainly: heat-shock hsp-16.2 GFP reporter inhibition, SAR follow-up, counter-screen for SKN-1 inhibitor project, whole organism, C. elegans VP596, GFP/RFP ratio, round 3 (AID 743023).
A word on the IC50: it is the concentration that gives 50% inhibition. Consider `COc1cccc(-c2csc(-c3ccncc3)n2)c1`, for which the IC50 is > 64 µM (inactive).

As to `Clc1ccc(-c2csc(-c3ccncc3)n2)cc1`, the IC50 was > 64 µM (inactive).

Consider `Clc1ccc(-c2csc(-c3ccccc3)n2)cc1`, for which the IC50 is > 64 µM (inactive).

Consider `Cc1sc(C2CCNCC2)nc1-c1ccccc1`, for which the IC50 is > 64 µM (inactive).

Consider `c1ccc(-c2csc(-c3ccccn3)n2)cc1`, for which the IC50 is > 64 µM (inactive).

`Clc1ccc(-c2csc(-c3ccccn3)n2)cc1`: the IC50 is > 64 µM (inactive).

Consider `COC(=O)c1ccc(-c2csc(-c3ccncc3)n2)cc1`, for which the IC50 was > 64 µM (inactive).

`Cc1ccc(-c2csc(C3CCNCC3)n2)cc1`: the IC50 was > 64 µM (inactive).

As for `CCCc1cc(-c2nc(-c3ccc(C)cc3)cs2)ccn1`, the IC50 was > 64 µM (inactive).

`COc1ccc(-c2csc(C3CCNCC3)n2)cc1`: the IC50 is > 64 µM (inactive).

For `N#Cc1ccc(-c2csc(-c3ccncc3)n2)cc1`, the IC50 is > 64 µM (inactive).

As for `Cc1ccc(-c2csc(-c3ccccn3)n2)cc1`, the IC50 is > 64 µM (inactive).

As for `c1ccc(-c2csc(-c3cccnc3)n2)cc1`, the IC50 is > 64 µM (inactive).

Regarding `Clc1ccc(-c2csc(-c3ccncc3)n2)cc1Cl`, the IC50 was > 64 µM (inactive).

On to `COc1ccc(-c2nc(-c3ccncc3)sc2C)cc1`, for which the IC50 is > 64 µM (inactive).

Turning to `Fc1ccc(-c2csc(-c3ccccn3)n2)cc1`, the IC50 was > 64 µM (inactive).

Turning to `Cc1ccc(-c2csc(-c3cccnc3)n2)cc1`, the IC50 is > 64 µM (inactive).

With `Clc1ccccc1-c1csc(-c2ccncc2)n1`, the IC50 is > 64 µM (inactive).

Regarding `Cc1ccc(-c2csc(-c3ccccc3)n2)cc1`, the IC50 is > 64 µM (inactive).

Turning to `Cc1csc(-c2ccncc2)n1`, the IC50 is > 64 µM (inactive).

For `Fc1ccc(-c2csc(-c3ccncc3)n2)cc1`, the IC50 was > 64 µM (inactive).

For `CCCc1cc(-c2nc(-c3ccc(NS(C)(=O)=O)cc3)cs2)ccn1`, the IC50 is > 64 µM (inactive).

As for `COc1ccc(-c2csc(-c3ccccn3)n2)cc1`, the IC50 was > 64 µM (inactive).

With `c1ccc(-c2csc(-c3ccncc3)n2)cc1`, the IC50 was > 64 µM (inactive).

On to `Fc1ccc(-c2csc(-c3ccccc3)n2)cc1`, for which the IC50 was > 64 µM (inactive).

Regarding `CC(C)(C)c1csc(-c2ccncc2)n1`, the IC50 is > 64 µM (inactive).

Take `Cc1sc(-c2ccncc2)nc1-c1ccccc1`: the IC50 is > 64 µM (inactive).

As for `Clc1ccc(-c2csc(-c3cccnc3)n2)cc1`, the IC50 was > 64 µM (inactive).

For the molecule `c1ccc(-c2nc(-c3cccnc3)cs2)cc1`, the IC50 is > 64 µM (inactive).

As to `Cc1ccc(-c2nc(-c3ccncc3)sc2C)cc1`, the IC50 is > 64 µM (inactive).

Take `Cc1ccccc1-c1csc(-c2ccncc2)n1`: the IC50 was > 64 µM (inactive).

Turning to `c1ccc(-c2csc(C3CCNCC3)n2)cc1`, the IC50 is > 64 µM (inactive).

As for `Fc1ccc(-c2csc(C3CCNCC3)n2)cc1`, the IC50 is > 64 µM (inactive).

On to `COc1ccc(-c2csc(-c3cccnc3)n2)cc1`, for which the IC50 was > 64 µM (inactive).

With `COc1ccccc1-c1csc(-c2ccncc2)n1`, the IC50 was > 64 µM (inactive).

Consider `Cc1sc(-c2ccncc2)nc1-c1ccc(Cl)cc1`, for which the IC50 was > 64 µM (inactive).

Regarding `Cc1cccc(-c2csc(-c3ccncc3)n2)c1`, the IC50 was > 64 µM (inactive).

As for `Cc1ccc(-c2csc(-c3ccncc3)n2)cc1`, the IC50 was > 64 µM (inactive).

Consider `c1cc(-c2nc(-c3nccs3)cs2)ccn1`, for which the IC50 is > 64 µM (inactive).

Regarding `COc1ccc(-c2csc(-c3ccccc3)n2)cc1`, the IC50 is > 64 µM (inactive).

Take `Fc1ccc(-c2csc(-c3cccnc3)n2)cc1`: the IC50 is > 64 µM (inactive).

For `COc1ccc(-c2csc(-c3ccncc3)n2)cc1`, the IC50 is > 64 µM (inactive).

Turning to `FC(F)(F)c1ccc(-c2csc(-c3ccncc3)n2)cc1`, the IC50 was > 64 µM (inactive).

Consider `Clc1ccc(-c2csc(C3CCNCC3)n2)cc1`, for which the IC50 is > 64 µM (inactive).

In the case of `Cc1sc(-c2ccncc2)nc1-c1ccc(F)cc1`, the IC50 is > 64 µM (inactive).

In the case of `Clc1cccc(-c2csc(-c3ccncc3)n2)c1`, the IC50 is > 64 µM (inactive).

For `Clc1ccc(-c2csc(-c3ccncc3)n2)c(Cl)c1`, the IC50 is > 64 µM (inactive).

For the molecule `c1cc(-c2nc(C3CC3)cs2)ccn1`, the IC50 is > 64 µM (inactive).
